The values that follow are results of earlier work, collected in patent US20100255105A1, “EXTENDED RELEASE PHARMACEUTICAL COMPOSITION COMPRISING METOPROLOL SUCCINATE” (ZAKLADY FARMACEUTYCZNE POLPHARMA S.A., priority 2009, published 2010).

SMILES strings stand for the structures.

For this data set the following is noted: water at 37° C.

As for `COCCc1ccc(OCC(O)CNC(C)C)cc1` (stereo not shown) [metoprolol succinate], the solubility in water is reported as 276 mg/mL.
